This is an account of results in PubChem BioAssay (NCI).

“And” between values parts separate entries of the source, which are not always exact repeats. Equal values may be shown once.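 Dose response: 5 concentrations. Exposure: 48 h. Format: 96-well plates. Endpoint: linear interpolation; highest concentration if not reached. The concentration for 50% growth inhibition is given as GI50. At the TGI there is no net growth.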

Holding throughout (assay): growth of human tumour cells (NCI), 48 h
For test [1], the system named is HOP-62 NSCLC.
For test [2], the system named is MALME-3M melanoma.
Test [3] concerns NCI-H23 lung.
Test [4] concerns SF-539 CNS.
The subject of test [5] is A549 NSCLC.
For test [6], the system named is NCI-H522 lung.
Test [7] relates to RPMI-8226 leukemia.
The subject of test [8] is SW-620 colon.
The subject of test [9] is UO-31 renal.
The test system of test [10] is SR leukemia.

On to `COC(=O)c1c2c(c(C)[n+]([O-])c1C)C(=O)C(NCc1ccc(Br)cc1)=CC2=O`, for which the GI50 in test [1] was 2.38 µM; in test [2], 0.243 µM; in [3] it was 1.57 µM; in test [4], 2.13 µM. Besides, the TGI in test [1] is 7.07 µM; in test [2], 0.8 µM; in test [3] it was 4.68 µM; in test [4], 4.75 µM.
Turning to `O=C(c1ccc([N+](=O)[O-])cc1[N+](=O)[O-])N(/N=C/C=C/c1ccccc1)c1nnc(-c2ccccc2)c(-c2ccccc2)n1`, the TGI in [5] was greater than 100 µM; in test [1] it was greater than 100 µM; in test [2], greater than 100 µM; in [3], 93.2 µM; in test [6], 96.6 µM; in test [7] it was greater than 100 µM. The figures for the TGI in test [4], in test [8] and in test [9] were 30.1 µM, greater than 100 µM and 50.6 µM, respectively.
For `COc1cc(OC)c(OC)cc1/C=N/NC(=O)N/N=C/c1cc(OC)c(OC)cc1OC`, the TGI in test [5] was greater than 100 µM; in test [2], greater than 100 µM; in test [3] it was greater than 100 µM; in [6] it was 86.5 µM; in test [7], greater than 100 µM; in test [4], greater than 100 µM. The TGI in [8] and in test [9] was greater than 100 µM throughout.
As for `COc1ccc(NC(=O)CSc2nnc(-c3ccc(NC(C)=O)cc3)o2)cc1`, the TGI in test [5] is 45.3 µM; in test [1], 68.6 µM; in test [2], 40.8 µM; in test [3], 23.2 µM; in [6], 33.9 µM; in test [9], 33 µM.
Turning to `COC(=N)c1csc(C2OC(CO)C(O)C2O)n1` (centres undefined), the TGI in [5], in test [1], in test [2], in test [3], in test [6] and in test [7] was greater than 100 µM each time. In addition, the TGI in [4], in test [8] and in test [9] was greater than 100 µM in each case.
Turning to `COc1ccc2c(=O)oc3c(OC)cc(CCN(C)C)c4c(=O)oc1c2c34`, the GI50 in test [5] was 21.3 µM and 8.46 µM; in test [7] it was 18.1 µM and 8.54 µM; in [4], 22.8 µM and 6.89 µM; in [8], 14 µM and 5.86 µM; in test [9] it was 17.3 µM and 8.48 µM. Besides, the TGI in [5] was 37 µM and 20.2 µM; in test [1] it was 28.7 µM; in test [2] it was 28.5 µM; in test [3] it was 32.7 µM and 17.5 µM; in test [6] it was 25.6 µM and 13.9 µM; in test [7] it was 41.3 µM and 19.8 µM. Also, the TGI in [4] is 37.5 µM and 14 µM; in test [8], 28.1 µM and 17.4 µM; in [9], 31.1 µM and 15.6 µM.
As to `C=C(C)[C@@H]1CC[C@]2(CN)CC[C@]3(C)[C@H](CC[C@@H]4[C@@]5(C)CCCNC(C)(C)[C@@H]5CC[C@]43C)[C@@H]12`, the GI50 is 1.95 µM in test [5]; 1.93 µM in [1]; 1.75 µM in test [2]; 1.7 µM in test [3]; 1.62 µM in test [4]; 1.53 µM in [8]. Further, the GI50 in [9] was 1.56 µM. The TGI in test [5] was 3.71 µM; in test [1] it was 3.73 µM; in test [2], 3.63 µM; in test [3] it was 3.3 µM; in [4] it was 3.09 µM; in test [8] it was 3.05 µM. The compound also had a TGI in [9] of 3.05 µM.
On to `Cc1nc2sccn2c1-c1nc2sccn2c1/C=C1/C(=O)Nc2ccccc21`, for which the GI50 is 3.95 µM in test [5]; 3.61 µM in test [1]; 3.26 µM in [2]; 9.44 µM in [3]; 2.72 µM in test [6]; 3.72 µM in test [4]. For the same compound, the results for the GI50 in test [8] and in test [9] were 2.32 µM and 4.93 µM, respectively. Also, the TGI in test [5] is greater than 100 µM; in [1] it was greater than 100 µM; in [2] it was 70.5 µM; in [3], greater than 100 µM; in [6] it was 11.1 µM; in [4], 15.6 µM. Also, the TGI in test [8] amounted to 7.61 µM; in test [9], 89.7 µM.
Turning to `O=S(=O)(OI(OI(OS(=O)(=O)C(F)(F)F)c1ccccc1)c1ccccc1)C(F)(F)F`, the TGI in [5], in test [1], in test [2], in [6], in test [7] and in test [4] was greater than 100 µM in each case. For the same compound, the TGI in [8] and in test [9] was greater than 100 µM each time.
Turning to `Cc1nc2c(N)ncnc2o1`, the TGI in test [5], in test [1], in [2], in [3], in test [6] and in test [4] was greater than 100 µM each time. In addition, the TGI in test [8] and in test [9] was greater than 100 µM throughout.
On to `CCCCCCCCc1cc2c(O)c(c1)Cc1cc(CCCCCCCC)cc(c1O)Cc1cc(CCCCCCCC)cc(c1O)Cc1cc(CCCCCCCC)cc(c1O)Cc1cc(CCCCCCCC)cc(c1O)Cc1cc(CCCCCCCC)cc(c1O)C2`, for which the TGI in [5], in test [2], in test [3], in test [4], in test [10] and in test [8] was greater than 100 µM in each case. For the same compound, the TGI in test [9] is greater than 100 µM.
On to `C=C(CN(C)Cc1ccccc1)c1ccc(NC(=O)c2ccc(C(=C)CN(C)Cc3ccccc3)cc2)cc1`, for which the GI50 in [5] is 77.8 µM; in test [1] it was 18.8 µM; in [2], greater than 100 µM; in test [3], 49.4 µM; in [6], greater than 100 µM; in test [7] it was 21.7 µM. The values for the GI50 in test [4], in test [8] and in test [9] were 68.8 µM, 96.7 µM and 76.2 µM, respectively. For the same compound, the TGI in test [5] is greater than 100 µM; in [1], 36.9 µM; in test [2] it was greater than 100 µM; in [3], greater than 100 µM; in [6], greater than 100 µM; in test [7], 53.6 µM. Also, the TGI in test [4], in [8] and in [9] was greater than 100 µM in each case.
Consider `CCCCCCCCSC1=C(Cl)C(=O)C(OC)=C(OC)C1=O`, for which the TGI was 48.4 µM in test [5]; 51.7 µM in test [1]; 21.8 µM in [2]; 31.5 µM in [3]; 14.4 µM in test [6]; greater than 100 µM in test [7]. Also, the TGI in [4] was 32.7 µM; in [8], 84 µM; in test [9], 25.7 µM.
